# Measurements: ChEMBL document CHEMBL1136120, “Effect of catechol derivatives on cell growth and lipoxygenase activity” (Bioorg Med Chem Lett, 2003)
# Assays:
# [1] = target: Polyunsaturated fatty acid lipoxygenase ALOX15 (Oryctolagus cuniculus) (UniProt P12530); experiment: Inhibition of rabbit reticulocyte 15-lipoxygenase by compound (30 uM)
# [2] = system: MAC16; experiment: Effect on metabolism of arachidonic acid for 5-HETE production through 15-LOX (15-lipoxygenase) pathway; type: functional, Mus musculus
# [3] = system: MAC16; experiment: Effect on metabolism of arachidonic acid for 5-HETE production through 12-LOX (12-lipoxygenase) pathway; type: functional, Mus musculus
# [4] = system: MAC13; experiment: Inhibitory activity against MAC13 cell lines; type: functional, cell-based; settings: Mus musculus
# [5] = system: MAC16; experiment: Effect on metabolism of arachidonic acid for 5-HETE production through 5-LOX (5-lipoxygenase) pathway; type: functional, Mus musculus
# [6] = system: MAC16; experiment: Inhibitory activity against MAC16 cell lines; type: functional, cell-based; settings: Mus musculus
# [7] = system: MAC16; experiment: Effect on metabolism of arachidonic acid for 15-HETE production through 15-LOX (15-lipoxygenase) pathway; type: functional, Mus musculus
# [8] = system: MAC16; experiment: Effect on metabolism of arachidonic acid for 12-HETE production through 12-LOX (12-lipoxygenase) pathway; type: functional, Mus musculus
# Sequence of Polyunsaturated fatty acid lipoxygenase ALOX15 (Oryctolagus cuniculus) (P12530 whole entry, looked up): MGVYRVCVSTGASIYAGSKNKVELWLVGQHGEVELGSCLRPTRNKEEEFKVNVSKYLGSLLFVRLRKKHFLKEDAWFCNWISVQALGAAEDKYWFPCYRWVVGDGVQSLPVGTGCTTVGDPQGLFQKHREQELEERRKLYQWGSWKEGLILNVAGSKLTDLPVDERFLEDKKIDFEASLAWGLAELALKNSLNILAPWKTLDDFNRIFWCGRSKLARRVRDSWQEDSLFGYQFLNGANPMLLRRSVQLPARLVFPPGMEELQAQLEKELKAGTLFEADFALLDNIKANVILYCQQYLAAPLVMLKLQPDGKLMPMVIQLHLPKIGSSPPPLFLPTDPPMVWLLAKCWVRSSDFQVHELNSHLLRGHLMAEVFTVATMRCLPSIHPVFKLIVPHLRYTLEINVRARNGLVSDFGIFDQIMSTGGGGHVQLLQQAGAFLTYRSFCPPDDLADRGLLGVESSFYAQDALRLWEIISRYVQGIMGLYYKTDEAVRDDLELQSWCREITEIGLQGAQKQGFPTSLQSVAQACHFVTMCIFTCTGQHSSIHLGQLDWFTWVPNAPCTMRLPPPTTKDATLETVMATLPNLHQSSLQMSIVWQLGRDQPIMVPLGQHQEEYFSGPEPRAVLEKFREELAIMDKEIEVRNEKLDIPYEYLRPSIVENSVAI
inhibition [1] [%],IC50 [4] [nM],IC50 [6] [nM],Structure (SMILES),Eicosanoid production [5] [pM 2hr-1],other results
100,–,–,O=C(Nc1ccc(O)c(O)c1)c1ccc(NC(=O)c2ccccc2O)cc1,–,–
102,330,2600,O=C(CCc1cccc(NC(=O)c2ccccc2O)c1)Nc1ccc(O)c(O)c1,4.7,Eicosanoid production [7]: 5.3 pM 2hr-1; Eicosanoid production [8]: 7.8 pM 2hr-1
99,–,–,O=C(CCc1ccc(NC(=O)c2ccccc2O)cc1)Nc1ccc(O)c(O)c1,–,–
102,3000,300000,O=C(/C=C/c1ccc(NC(=O)c2ccccc2O)cc1)Nc1ccc(O)c(O)c1,–,–
104,–,–,O=C(Nc1ccc(NC(=O)c2ccccc2O)cc1)Nc1ccc(O)c(O)c1,–,–
103,–,–,O=C(Nc1ccc(/N=C(\S)Nc2ccc(O)c(O)c2)cc1)c1ccccc1O,–,–

# More lines, now with the values behind:
Structure (SMILES),inhibition [1] [%],IC50 [4] [nM],IC50 [6] [nM],Eicosanoid production [5] [pM 2hr-1],other results
COc1ccccc1C(=O)Nc1ccc(CCC(=O)Nc2ccc3c(c2)OC(C)(CCc2ccccc2)O3)cc1 (configuration not stated),–,> 50000,> 50000,110,Eicosanoid production [2]: 91.5 pM 2hr-1; Eicosanoid production [3]: 78 pM 2hr-1
O=C(Nc1ccc(O)c(O)c1)c1ccc(NCc2ccccc2O)cc1,103,–,–,–,–
CC1=C(C)C(=O)C(Cc2cccnc2)=C(C)C1=O,3,6300,4750,13.3,Eicosanoid production [2]: 22.2 pM 2hr-1; Eicosanoid production [3]: 15 pM 2hr-1
CCCCCCCc1ccc(C(=O)Nc2ccc(O)c(O)c2)cc1,–,900,1000,–,–
